“And” between values parts separate entries of the source, which are not always exact repeats. Equal values may be shown once. Toxic doses and inconclusive results are not listed. Rule as the data show it: active = T/C of 150% or more; inactive = T/C below 125%.
System: L1210 leukemia ip in BDF1 mice, survival T/C
Experiment: NCI In Vivo Anticancer Drug Screen. Data for tumor model L1210 Leukemia (intraperitoneal) in B6D2F1 (BDF1) mice
Conditions: endpoint: mean survival time, higher = longer survival
Outline: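 Tumor was transplanted into mice, which were then dosed with test compound or vehicle alone. Survival was recorded for each group, and the treated figure was expressed relative to the control figure.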

[1] = dose: 100.0 mg/kg/injection, schedule: Q04DX003 (ip), vehicle: Klucel (hydroxypropylcellulose) (HPC)
[2] = dose: 100.0 mg/kg/injection, schedule: Q01DX009 (ip), vehicle: saline
[3] = dose: 200.0 mg/kg/injection, schedule: Q01DX009 (ip), vehicle: saline
[4] = dose: 400.0 mg/kg/injection, schedule: Q01DX009 (ip), vehicle: saline
[5] = dose: 100.0 mg/kg/injection, schedule: Q01DX001 (ip), vehicle: saline
[6] = dose: 200.0 mg/kg/injection, schedule: Q01DX001 (ip), vehicle: saline
[7] = dose: 400.0 mg/kg/injection, schedule: Q01DX001 (ip), vehicle: saline
[8] = dose: 100.0 mg/kg/injection, schedule: Q01DX009 (ip), vehicle: saline with Tween-80
[9] = dose: 100.0 mg/kg/injection, schedule: Q04DX003 (ip), vehicle: saline with Tween-80
[10] = dose: 200.0 mg/kg/injection, schedule: Q01DX009 (ip), vehicle: saline with Tween-80
[11] = dose: 200.0 mg/kg/injection, schedule: Q04DX003 (ip), vehicle: saline with Tween-80
[12] = dose: 400.0 mg/kg/injection, schedule: Q01DX009 (ip), vehicle: saline with Tween-80
[13] = dose: 400.0 mg/kg/injection, schedule: Q04DX003 (ip), vehicle: saline with Tween-80
[14] = dose: 100.0 mg/kg/injection, schedule: Q01DX009 (ip), vehicle: Klucel (hydroxypropylcellulose) (HPC)
[15] = dose: 200.0 mg/kg/injection, schedule: Q01DX009 (ip), vehicle: Klucel (hydroxypropylcellulose) (HPC)
[16] = dose: 400.0 mg/kg/injection, schedule: Q01DX009 (ip), vehicle: Klucel (hydroxypropylcellulose) (HPC)

Measured: T/C

OCc1ccc(-c2ccccc2)cc1
inactive: dose: 25.0 mg/kg/injection, schedule: Q04DX003 (ip), vehicle: Klucel (hydroxypropylcellulose) (HPC) 108 % of control | dose: 50.0 mg/kg/injection, schedule: Q01DX005 (ip), vehicle: saline 94 % of control | dose: 50.0 mg/kg/injection, schedule: Q04DX003 (ip), vehicle: Klucel (hydroxypropylcellulose) (HPC) 103 % of control | dose: 100.0 mg/kg/injection, schedule: Q01DX005 (ip), vehicle: saline 112 % of control | [1] 103 % of control | dose: 200.0 mg/kg/injection, schedule: Q01DX005 (ip), vehicle: saline 100 % of control | dose: 400.0 mg/kg/injection, schedule: Q01DX005 (ip), vehicle: saline 102 % of control

CC1CC2C(CC1O)C2(C)C (stereo unspecified)
inactive: [2] 97 % of control | dose: 100.0 mg/kg/injection, schedule: Q04DX003 (ip), vehicle: saline 94 % of control | [3] 101 % of control | dose: 200.0 mg/kg/injection, schedule: Q04DX003 (ip), vehicle: saline 94 % of control | [4] 106 % of control | dose: 400.0 mg/kg/injection, schedule: Q04DX003 (ip), vehicle: saline 91 % of control

NC(=S)N/N=C1/CCCCC12CCCCC2
inactive: dose: 50.0 mg/kg/injection, schedule: Q01DX001 (ip), vehicle: saline 116 % of control | [5] 91 % of control | [6] 124 % of control | [7] 100 % of control

CC(/C=C/c1ccccc1Cl)=N\NC(=O)c1ccncc1
inactive: dose: 100.0 mg/kg/injection, schedule: Q01DX001 (ip), vehicle: saline with Tween-80 95 % of control | dose: 200.0 mg/kg/injection, schedule: Q01DX001 (ip), vehicle: saline with Tween-80 95 % of control | dose: 400.0 mg/kg/injection, schedule: Q01DX001 (ip), vehicle: saline with Tween-80 90 % of control

CC(C)(C)NC(=O)Nc1ccc(O)cc1
inactive: [8] 112 % of control and 91 % of control | dose: 100.0 mg/kg/injection, schedule: Q04DX002 (ip), vehicle: saline with Tween-80 94 % of control and 100 % of control | [9] 95 % of control | [10] 100 % of control and 102 % of control | dose: 200.0 mg/kg/injection, schedule: Q04DX002 (ip), vehicle: saline with Tween-80 94 % of control and 100 % of control | [11] 113 % of control | [12] 120 % of control | dose: 400.0 mg/kg/injection, schedule: Q04DX002 (ip), vehicle: saline with Tween-80 100 % of control and 101 % of control | [13] 105 % of control

Cc1[nH]c(=O)[nH]c(=O)c1Br
inactive: dose: 37.0 mg/kg/injection, schedule: Q01DX Z (ip), vehicle: methylcellulose (MC) 91 % of control | dose: 75.0 mg/kg/injection, schedule: Q01DX Z (ip), vehicle: methylcellulose (MC) 96 % of control | dose: 150.0 mg/kg/injection, schedule: Q01DX Z (ip), vehicle: methylcellulose (MC) 86 % of control

N#CC(C#N)=Cc1ccc2c(c1)CCC2
inactive: dose: 10.0 mg/kg/injection, schedule: Q01DX009 (ip), vehicle: saline with Tween-80 100 % of control | dose: 20.0 mg/kg/injection, schedule: Q01DX009 (ip), vehicle: saline with Tween-80 96 % of control | dose: 40.0 mg/kg/injection, schedule: Q01DX009 (ip), vehicle: saline with Tween-80 94 % of control | dose: 75.0 mg/kg/injection, schedule: Q01DX001 (ip), vehicle: other 96 % of control

CCOc1ccc(OCC)c(NC(=O)c2ccccc2)c1
inactive: [9] 94 % of control | [11] 92 % of control | [13] 95 % of control

CCC/C(=N/NC(=O)c1ccccc1)c1ccccc1
inactive: dose: 100.0 mg/kg/injection, schedule: Q04DX002 (ip), vehicle: Klucel (hydroxypropylcellulose) (HPC) 110 % of control | dose: 200.0 mg/kg/injection, schedule: Q04DX002 (ip), vehicle: Klucel (hydroxypropylcellulose) (HPC) 110 % of control | dose: 400.0 mg/kg/injection, schedule: Q04DX002 (ip), vehicle: Klucel (hydroxypropylcellulose) (HPC) 100 % of control

Nc1nc(N)c2[nH]cnc2n1 (tested in a mixture with another compound)
inactive: dose: 100.0 mg/kg/injection, schedule: Q01DX001 (ip), vehicle: carboxymethylcellulose (CMC) 93 % of control | dose: 200.0 mg/kg/injection, schedule: Q01DX001 (ip), vehicle: carboxymethylcellulose (CMC) 89 % of control | dose: 400.0 mg/kg/injection, schedule: Q01DX001 (ip), vehicle: carboxymethylcellulose (CMC) 94 % of control

CC(=O)OCC(=O)[C@@]1(O)CC[C@H]2[C@@H]3CCC4=CC(=O)[C@H](C)C[C@]4(C)[C@@]3(F)[C@@H](O)C[C@@]21C
inactive: dose: 50.0 mg/kg/injection, schedule: Q01DX Z (sc), vehicle: steriod suspending solution 114 % of control | dose: 100.0 mg/kg/injection, schedule: Q01DX Z (sc), vehicle: steriod suspending solution 114 % of control

CC(=O)OC(C)(/N=N/C(C)(OC(C)=O)c1ccc(Cl)cc1)c1ccc(Cl)cc1 (stereo unspecified)
inactive: dose: 25.0 mg/kg/injection, schedule: Q01DX009 (ip), vehicle: gum acacia 113 % of control | dose: 25.0 mg/kg/injection, schedule: Q04DX003 (ip), vehicle: gum acacia 98 % of control | dose: 50.0 mg/kg/injection, schedule: Q01DX009 (ip), vehicle: gum acacia 100 % of control | dose: 50.0 mg/kg/injection, schedule: Q04DX003 (ip), vehicle: gum acacia 98 % of control | dose: 100.0 mg/kg/injection, schedule: Q01DX001 (ip), vehicle: gum acacia 92 % of control | dose: 100.0 mg/kg/injection, schedule: Q01DX009 (ip), vehicle: gum acacia 94 % of control | dose: 100.0 mg/kg/injection, schedule: Q04DX003 (ip), vehicle: gum acacia 102 % of control

O=C1OCc2ccccc2C1O (stereo unspecified)
inactive: [5] 111 % of control | [6] 94 % of control | [7] 94 % of control

Cc1nnc2c([N+](=O)[O-])cccn12
inactive: [5] 98 % of control | [6] 103 % of control

CCOC(=O)c1c(Cl)c(Cl)c(Cl)c(Cl)c1C(=O)OCC
inactive: [14] 105 % of control | [8] 101 % of control | [1] 90 % of control | [9] 100 % of control | [15] 104 % of control | [10] 90 % of control | dose: 200.0 mg/kg/injection, schedule: Q04DX003 (ip), vehicle: Klucel (hydroxypropylcellulose) (HPC) 95 % of control | [11] 104 % of control | [16] 100 % of control | [12] 93 % of control | dose: 400.0 mg/kg/injection, schedule: Q04DX003 (ip), vehicle: Klucel (hydroxypropylcellulose) (HPC) 105 % of control | [13] 102 % of control

CCCOCNC(=O)c1cccnc1
inactive: [5] 103 % of control | [2] 97 % of control | [6] 95 % of control | [3] 94 % of control | [7] 105 % of control | [4] 103 % of control

Cc1ccc(CC2NC(=O)NC2=O)cc1 (stereo unspecified)
inactive: dose: 25.0 mg/kg/injection, schedule: Q01DX009 (ip), vehicle: saline with Tween-80 102 % of control | dose: 50.0 mg/kg/injection, schedule: Q01DX009 (ip), vehicle: saline with Tween-80 96 % of control | [8] 104 % of control | [10] 96 % of control | [12] 94 % of control

CC(C)c1ccc(NC(=O)c2ccc(Cl)c(Cl)c2)cc1
inactive: [14] 98 % of control | [15] 91 % of control | [16] 93 % of control

O=C1C2OC2(c2ccccc2)C(=O)C2OC12c1ccccc1 (stereo unspecified)
inactive: dose: 75.0 mg/kg/injection, schedule: Q01DX001 (ip), vehicle: Klucel (hydroxypropylcellulose) (HPC) 96 % of control | dose: 150.0 mg/kg/injection, schedule: Q01DX001 (ip), vehicle: Klucel (hydroxypropylcellulose) (HPC) 87 % of control | dose: 300.0 mg/kg/injection, schedule: Q01DX001 (ip), vehicle: Klucel (hydroxypropylcellulose) (HPC) 91 % of control

COc1ccc(OC)c2c(=O)cc(C)[nH]c12
inactive: [5] 100 % of control | [6] 92 % of control | [7] 102 % of control

Reference: PubChem BioAssay AID248 (DTP/NCI, 2004)
